Reference: the supplement of paper PMC11061612

Experiments:
[1] = tested on: A673 (Ewing's Sarcoma); test: Bliss excess, mean over the matrix (fraction); higher = more synergy
Summary of the method: (§1)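 After 24 hours at 37°C and 5% CO2 in 1536-well plates, cells in DMEM/F12 or RPMI plus 10% FBS received two-drug dose matrices for 72 hours. Viability came from CellTiter-Glo 2.0 luminescence and was scaled as inhibition, anchored at 0 by vehicle wells and at 1 by blank wells. Combination Emax is taken as the second-highest inhibition in the matrix, and Bliss excess as the observed combination effect less EA + EB − EA·EB, with EA and EB the single-agent effects.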

[2] = tested on: BFTC-909 (Kidney Carcinoma); test: as above
Summary of the method: as §1

[3] = tested on: CAL-33 (Oral Cavity Carcinoma); test: as above
Summary of the method: as §1

[4] = tested on: Detroit562 (Head and Neck Carcinoma); test: as above
Summary of the method: as §1

[5] = tested on: GAMG (Glioblastoma); test: as above
Summary of the method: as §1

[6] = tested on: MPP-89 (Mesothelioma); test: as above
Summary of the method: as §1

[7] = tested on: NCI-H1568 (Lung Adenocarcinoma); test: as above
Summary of the method: as §1

[8] = tested on: NCI-H2052 (Mesothelioma); test: as above
Summary of the method: as §1

[9] = tested on: NCI-H209 (Small Cell Lung Carcinoma); test: as above
Summary of the method: as §1

[10] = tested on: NCI-H524 (Small Cell Lung Carcinoma); test: as above
Summary of the method: as §1

[11] = tested on: SNU-16 (Gastric Carcinoma); test: as above
Summary of the method: as §1

[12] = tested on: SNU-449 (Hepatocellular Carcinoma); test: as above
Summary of the method: as §1

[13] = tested on: SW1573 (Lung Adenocarcinoma); test: as above
Summary of the method: as §1

[14] = tested on: SW1710 (Bladder Carcinoma); test: as above
Summary of the method: as §1

[15] = tested on: YAPC (Pancreatic Carcinoma); test: as above
Summary of the method: as §1

[16] = tested on: A673 (Ewing's Sarcoma); test: combination Emax (second highest fraction inhibited in the dose matrix, 72 h); higher = more inhibition; extreme values may be limits of the assay
Summary of the method: as §1

[17] = tested on: BFTC-909 (Kidney Carcinoma); test: as above
Summary of the method: as §1

[18] = tested on: KS-1 (Glioblastoma); test: as above
Summary of the method: as §1

[19] = tested on: SNU-449 (Hepatocellular Carcinoma); test: as above
Summary of the method: as §1

[20] = tested on: SW1710 (Bladder Carcinoma); test: as above
Summary of the method: as §1
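For Bliss excess, mean over the matrix in this document: after 72 h of two-drug dosing.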

| SMILES | Bliss excess [1] | Bliss excess [2] | Bliss excess [3] | Bliss excess [4] | Bliss excess [5] | Bliss excess [6] | Bliss excess [7] | Bliss excess [8] | Bliss excess [9] | Bliss excess [10] | Bliss excess [11] | Bliss excess [12] | Bliss excess [13] | Bliss excess [14] | Bliss excess [15] | combination Emax [16] | combination Emax [17] | combination Emax [18] | combination Emax [19] | combination Emax [20] |
| --- | --- | --- | --- | --- | --- | --- | --- | --- | --- | --- | --- | --- | --- | --- | --- | --- | --- | --- | --- | --- |
| CN(C)CCCOc1ccc(-c2ccc3ncc4c(c3c2)n(C2CCOCC2)c(=O)n4C)cn1 [AZD0156] + C=CCn1c(=O)c2cnc(Nc3ccc(N4CCN(C)CC4)cc3)nc2n1-c1cccc(C(C)(C)O)n1 [AZD1775] (first compound max 1 µM, partner max 1 µM) | 0.0342 | -0.0638 | -0.0497 | -0.0122 | -0.0429 | -0.0513 | -0.0493 | -0.0554 | -0.0624 | -0.0204 | -0.0158 | -0.0635 | -0.0423 | -0.0205 | -0.0575 | 0.564 | 0.67 | 0.39 | 0.142 | 0.337 |
| CN(C)CCCOc1ccc(-c2ccc3ncc4c(c3c2)n(C2CCOCC2)c(=O)n4C)cn1 [AZD0156] + CCN(CCO)CCCOc1ccc2c(Nc3cc(CC(=O)Nc4cccc(F)c4)[nH]n3)ncnc2c1 [AZD2811] (first compound max 1 µM, 7x7, partner max 1 µM) | 0.0262 | -0.0015 | -0.0139 | 0.0235 | -0.0244 | -0.0402 | -0.0376 | -0.0123 | 0.0922 | -0.0083 | 0.0244 | -0.0656 | -0.0205 | -0.0288 | -0.0536 | 0.75 | 0.127 | 0.291 | 0.0548 | 0.0832 |
| CN(C)CCCOc1ccc(-c2ccc3ncc4c(c3c2)n(C2CCOCC2)c(=O)n4C)cn1 [AZD0156] + C[C@@H]1COCCN1C2=NC(=NC(=C2)C3(CC3)[S@](=N)(=O)C)C4=C5C=CNC5=NC=C4 [AZD6738] (first compound max 1 µM, 7x7, partner max 10 µM) | 0.0153 | 0.027 | -0.0178 | 0.0477 | -0.0485 | 0.0041 | -0.0424 | -0.0317 | 0.0711 | 0.0229 | 0.0529 | -0.0662 | -0.0315 | -0.0134 | -0.0354 | 0.907 | 0.813 | 0.561 | 0.176 | 0.509 |
| CN(C)CCCOc1ccc(-c2ccc3ncc4c(c3c2)n(C2CCOCC2)c(=O)n4C)cn1 [AZD0156] + O=C(c1cc(Cc2n[nH]c(=O)c3ccccc23)ccc1F)N1CCN(C(=O)C2CC2)CC1 [Olaparib] (first compound max 3 µM, partner max 3 µM) | 0.16 | 0.0705 | 0.0741 | 0.058 | 0.0515 | -0.0547 | 0.0101 | -0.0064 | 0.163 | 0.179 |  | -0.0344 | -0.0002 | -0.0233 | 0.0131 | 0.653 | 0.527 | 0.197 | 0.0695 | 0.0777 |
| C=CCn1c(=O)c2cnc(Nc3ccc(N4CCN(C)CC4)cc3)nc2n1-c1cccc(C(C)(C)O)n1 [AZD1775] + C1CN(CCC1(C(=O)N[C@@H](CCO)C2=CC=C(C=C2)Cl)N)C3=NC=NC4=C3C=CN4 [Capivasertib] (first compound max 3 µM, partner max 3 µM) | 0.018 | -0.0004 | 0.066 | 0.0209 | 0.0181 | -0.0704 | -0.0572 | -0.0369 |  | -0.0075 |  | 0.0122 | -0.0229 | 0.0334 | -0.0097 | 0.526 | 0.922 | 0.589 | 0.271 | 0.475 |
| Cc1c2c(nn1C)CSCc1cc(n(C)n1)CSc1cc(c3ccccc3c1)OCCCc1c(C(=O)O)n(C)c3c-2c(Cl)ccc13 [AZD5991] + CN(C)CCCOc1ccc(-c2ccc3ncc4c(c3c2)n(C2CCOCC2)c(=O)n4C)cn1 [AZD0156] (first compound max 1 µM, 7x7, partner max 1 µM) | 0.0293 | 0.0101 | 0.0215 | -0.0251 | 0.0339 |  | -0.0091 | -0.0027 | 0.008 | 0.0301 | 0.0313 | -0.0243 | -0.0245 | -0.0134 | 0.0081 | 0.438 | 0.239 | 0.225 | 0.25 | 0.219 |
| Cc1c2c(nn1C)CSCc1cc(n(C)n1)CSc1cc(c3ccccc3c1)OCCCc1c(C(=O)O)n(C)c3c-2c(Cl)ccc13 [AZD5991] + Cc1cc2ncnn2cc1Nc1ncc2c(n1)n(C1CCOCC1)c(=O)n2C [AZD7648] (first compound max 1 µM, 7x7, partner max 10 µM) | -0.0515 | 0.0101 | -0.0341 | -0.0172 | -0.0321 | 0.0158 | -0.0717 | -0.0556 |  | -0.016 | 0.0284 | -0.0453 | -0.0896 | -0.0209 | 0.0003 | 0.471 | 0.292 | 0.253 | 0.238 | 0.177 |
| C[C@@H](Oc1cc(-c2cnn(C3CCNCC3)c2)cnc1N)c1c(Cl)ccc(F)c1Cl [Crizotinib] + Cn1cnc2c(F)c(Nc3ccc(Br)cc3Cl)c(C(=O)NOCCO)cc21 [Selumetinib] (first compound max 10 µM, 7x7, partner max 10 µM) | -0.0206 |  |  |  | -0.0308 | -0.0078 |  |  |  | -0.0449 | -0.0073 | -0.0665 |  | -0.0956 | -0.0319 | 0.742 |  | 0.646 | 0.455 | 0.381 |
| CS(=O)(=O)CCNCc1ccc(-c2ccc3ncnc(Nc4ccc(OCc5cccc(F)c5)c(Cl)c4)c3c2)o1 [Lapatinib] + Cn1cnc2c(F)c(Nc3ccc(Br)cc3Cl)c(C(=O)NOCCO)cc21 [Selumetinib] (first compound max 10 µM, 7x7, partner max 10 µM) | -0.039 |  |  |  | -0.06 | -0.0065 |  |  |  | -0.0534 | -0.0169 | -0.0601 |  | -0.0077 | 0.0037 | 0.343 |  | 0.342 | 0.514 | 0.317 |
| CS(=O)(=O)CCNCc1ccc(-c2ccc3ncnc(Nc4ccc(OCc5cccc(F)c5)c(Cl)c4)c3c2)o1 [Lapatinib] + NC1(c2ccc(-c3nc4ccn5c(=O)[nH]nc5c4cc3-c3ccccc3)cc2)CCC1 [MK-2206] (first compound max 10 µM, 7x7, partner max 10 µM) | -0.064 | -0.0279 |  |  | 0.016 | -0.0391 |  | -0.0143 |  | 0.0223 | 0.0758 | 0.0446 |  | -0.0417 | 0.0208 | 0.363 | 0.941 | 0.403 | 0.82 | 0.602 |
| O=C(c1cc(Cc2n[nH]c(=O)c3ccccc23)ccc1F)N1CCN(C(=O)C2CC2)CC1 [Olaparib] + CC1(C)CCC(CN2CCN(c3ccc(C(=O)NS(=O)(=O)c4ccc(NCC5CCOCC5)c([N+](=O)[O-])c4)c(Oc4cnc5[nH]ccc5c4)c3)CC2)=C(c2ccc(Cl)cc2)C1 [Venetoclax] (first compound max 10 µM, 7x7, partner max 1 µM) | 0.0169 |  |  |  | -0.0303 | -0.0605 |  |  |  | -0.0173 | 0.0258 | -0.0418 |  | -0.0606 | -0.0282 | 0.501 |  | 0.0863 | 0.0891 | 0.114 |
| O=C(c1cc(Cc2n[nH]c(=O)c3ccccc23)ccc1F)N1CCN(C(=O)C2CC2)CC1 [Olaparib] + CN(CC[C@H](CSC1=CC=CC=C1)NC2=C(C=C(C=C2)S(=O)(=O)NC(=O)C3=CC=C(C=C3)N4CCC(CC4)[C@H](C5=CC=CC=C5C6=CC=C(C=C6)Cl)O)S(=O)(=O)C(F)(F)F)CCO [AZD4320] (first compound max 10 µM, 7x7, partner max 1 µM) | 0.0265 |  |  |  | -0.034 | -0.0662 |  |  |  | 0.0085 | 0.0432 | -0.0422 |  | -0.0397 | -0.0169 | 0.948 |  | 0.2 | 0.11 | 0.265 |
| O=C(c1cc(Cc2n[nH]c(=O)c3ccccc23)ccc1F)N1CCN(C(=O)C2CC2)CC1 [Olaparib] + COc1nnc2ccc(N3CCC(c4ccc(OCCN5CCN(C)C(=O)[C@H]5C)cc4)CC3)nn12 [AZD5153] (first compound max 10 µM, 7x7, partner max 1 µM) | -0.077 |  |  |  | -0.002 | -0.0489 |  |  |  | -0.0532 | -0.0066 | -0.0587 |  | 0.0021 | -0.0239 | 0.578 |  | 0.582 | 0.208 | 0.379 |
| O=C(c1cc(Cc2n[nH]c(=O)c3ccccc23)ccc1F)N1CCN(C(=O)C2CC2)CC1 [Olaparib] + Cc1c2c(nn1C)CSCc1cc(n(C)n1)CSc1cc(c3ccccc3c1)OCCCc1c(C(=O)O)n(C)c3c-2c(Cl)ccc13 [AZD5991] (first compound max 10 µM, 7x7, partner max 1 µM) | -0.0566 |  |  |  | -0.0488 | -0.0586 |  |  |  | 0.0147 | 0.0603 | -0.045 |  | -0.0476 | -0.0367 | 0.446 |  | 0.0895 | 0.0781 | 0.119 |
| CCc1c2c(nc3ccc(O)cc13)-c1cc3c(c(=O)n1C2)COC(=O)[C@]3(O)CC [SN-38] + O=C(c1cc(Cc2n[nH]c(=O)c3ccccc23)ccc1F)N1CCN(C(=O)C2CC2)CC1 [Olaparib] (first compound max 0.3 µM, 7x7, partner max 10 µM) | 0.0875 | 0.0897 | 0.0519 |  | 0.109 | 0.0504 |  |  |  | 0.0488 | 0.0005 | -0.0319 |  | 0.037 | 0.0336 | 1 | 0.931 | 0.556 | 0.175 | 0.327 |
| Cc1nc(-c2cn3c(n2)-c2ccc(-c4cnn(C(C)(C)C(N)=O)c4)cc2OCC3)n(C(C)C)n1 [Taselisib] + O=C(Nc1ccc2[nH]nc(-c3ccncc3)c2c1)[C@@H]1CCN(CC(=O)N2CCN(c3ccc(-c4ncccn4)cc3)CC2)C1 [SCH772984] (first compound max 10 µM, 7x7, partner max 5 µM) | 0.131 |  |  |  | 0.0241 | 0.0373 |  |  |  | 0.0464 | 0.123 | 0.0076 |  | -0.0048 | 0.134 | 0.705 |  | 0.677 | 0.445 | 0.422 |
